From patent US9340577B2, “HLA binding motifs and peptides and their uses” (priority 1992, dated 2016)
No end group written: not given here.

Legend:
Assay in all cases: biochemical
A*3002 = A*3002 (Homo sapiens, UniProt P04439, D101N/D140H/D185E/E176R/F33S/G80R/H175R/K168Q/Q94H/R138E/R41S/V100E); format: binding
A*2902 = A*2902 (Homo sapiens, UniProt P04439, A270S/D101N/D185E/E176V/E277Q/E87Q/F33T/G231S/H175R/I121M/I218V/I322F/K168Q/L300P/L318F/M331R/P208A/P217A/Q86L/T323A/T345S/V100A/V358M); format: binding
HLA-A1 (A*0101) = HLA-A1 (A*0101) (Homo sapiens, UniProt P04439, A114D/A174V/A182V/D101N/D185E/E176A/E190D/L180R/Q94H/R68K/S129P/T187R/V100A/V91M/W191G); format: binding
DR7 (DRB1*0701) = DR7 (DRB1*0701) (Homo sapiens, UniProt P01903+P01911, A100R/A102G/A103Q/D57E/D86V/E43K/F76Y/K127E/L162R/M171V/P40G/Q125H/Q99D/R33Q/R42Y/R54Q/S133A/S66F/T210M/V115G/Y107V/Y59L/Y89S); format: binding
DR1 (DRB1*0101) = DR1 (DRB1*0101) (Homo sapiens, UniProt P01903+P01911, A100R/D57E/F55L/F60I/F76Y/I96L/L162R/M171V/P40L/Q125E/R42F/V115G/Y59C); format: binding
DRB1*1201 = DRB1*1201 (Homo sapiens, UniProt P01903+P01911, A100R/A169T/D57E/D86V/F55L/H45Y/K41T/L162R/M171V/P40S/Q125H/Q178H/Q39Y/Q99D/R42G/S66L/T262R/V114A/V67L/W38E/Y59H/Y61H/Y89S); format: binding
DRB1*1501 = DRB1*1501 (Homo sapiens, UniProt P01903+P01911); format: binding
DRB1*0901 = DRB1*0901 (Homo sapiens, UniProt P01903+P01911, A100R/A103E/D57H/D86V/F55Y/F60I/F76Y/I96F/K127E/L162R/M171V/P40D/Q125H/Q99R/R33Q/R42F/S133A/S66N/T210M/V115G/W38K/Y107V/Y59G/Y89S); format: binding
DRB1*0802 = DRB1*0802 (Homo sapiens, UniProt P01903+P01911, A100R/A103L/A169T/F76Y/H45Y/I96F/K41T/L162R/M171V/P40S/Q125H/Q178H/Q39Y/Q99D/R218S/R42G/S66Y/V115G/W38E); format: binding
DRB1*1101 = DRB1*1101 (Homo sapiens, UniProt P01903+P01911, A100R/A169T/A87E/I96F/K41T/L162R/M171V/P40S/Q125H/Q178H/Q39Y/Q99D/R42S/S66Y/T262R/V115G/W38E); details: Binding affinity DRB1 *1101
DRB1*1302 = DRB1*1302 (Homo sapiens, UniProt P01903+P01911, A100E/A169T/K41T/L162R/M171V/P40S/Q125H/Q178H/Q39Y/Q99D/R42S/S66N/T262R/V115G/W38E/Y61H); format: binding
DRB3*0101 = DRB3*0101 (Homo sapiens, UniProt P01903+P79483); format: binding
DR4w4 (DRB1*0401) = DR4w4 (DRB1*0401) (Homo sapiens, UniProt P01903+P01911, A100K/A169T/F76Y/I96L/K127E/L162R/M171V/N62H/P40V/Q125Y/R42H/S133A/S149N/S66Y/V115G/V209L/W38E); format: binding
DRB1*0301 = DRB1*0301 (Homo sapiens, UniProt P01903+P01911, A100K/A102G/A103R/A169T/F55Y/I96L/K41T/L162R/M171V/P40S/Q125H/Q178H/Q39Y/R42S/S66N/T106N/T262R/W38E/Y61H); format: binding
DRB1*0405 = DRB1*0405 (Homo sapiens, UniProt P01903+P01911, A100R/A169T/D86S/F76Y/I96L/K127E/L162R/M171V/N62H/P40V/Q125Y/R42H/S133A/S149N/S66Y/V115G/V209L/W38E); format: binding
DRB5*0101 = DRB5*0101 (Homo sapiens, UniProt P01903+Q30154); details: Binding affinity DRB5 *0101
DRB4*0101 = DRB4*0101 (Homo sapiens, UniProt P01903+P13762, G164S); format: binding

Chain of A*3002 (P04439 whole entry, looked up, the tested form may be a part, stated change not applied): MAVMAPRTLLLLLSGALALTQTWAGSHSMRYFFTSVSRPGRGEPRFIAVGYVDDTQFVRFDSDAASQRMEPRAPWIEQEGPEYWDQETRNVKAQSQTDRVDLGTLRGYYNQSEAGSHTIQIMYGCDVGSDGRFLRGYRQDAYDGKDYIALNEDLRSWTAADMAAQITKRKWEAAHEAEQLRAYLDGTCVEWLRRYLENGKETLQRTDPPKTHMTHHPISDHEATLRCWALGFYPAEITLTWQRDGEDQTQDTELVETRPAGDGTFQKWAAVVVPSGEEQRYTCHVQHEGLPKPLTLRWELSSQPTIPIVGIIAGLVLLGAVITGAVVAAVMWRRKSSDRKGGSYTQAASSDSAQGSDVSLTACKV
Chain of DRB1*0301 (P01903 26-254 limits assumed, other chains not shown): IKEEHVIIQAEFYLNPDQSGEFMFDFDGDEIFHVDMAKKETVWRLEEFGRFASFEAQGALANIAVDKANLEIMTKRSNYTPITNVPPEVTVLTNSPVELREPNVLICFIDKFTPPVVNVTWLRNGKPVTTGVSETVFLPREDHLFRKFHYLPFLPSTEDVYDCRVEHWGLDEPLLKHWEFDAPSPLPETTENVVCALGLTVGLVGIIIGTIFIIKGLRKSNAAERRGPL
Chain of DRB1*1302 (P01903 26-254 limits assumed, other chains not shown): as above
Chain of DRB1*1101 (P01903 26-254 limits assumed, other chains not shown): as above

FSITNWLWY [Peptide 9015.0008]
IC50 (A*3002): 870 nM
IC50 (A*2902): 37 nM
IC50 (HLA-A1 (A*0101)): 74 nM

LFDQLIHLY [Peptide 9018.0027]
IC50 (A*3002): 10 nM
IC50 (A*2902): 45 nM
IC50 (HLA-A1 (A*0101)): 83 nM

MSDSQWIKY [Peptide 1593.05]
IC50 (A*3002): 434 nM
IC50 (A*2902): 839 nM
IC50 (HLA-A1 (A*0101)): 10 nM

YRHYQYSLYGKTLEE [Peptide 1543.58]
IC50 (DR7 (DRB1*0701)): 146 nM
IC50 (DR1 (DRB1*0101)): 11 nM
IC50 (DRB1*1201): 12000 nM
IC50 (DRB1*1501): 2900 nM
IC50 (DRB1*0901): 273 nM
IC50 (DRB1*0802): 410 nM
IC50 (DRB1*1101): 953 nM
IC50 (DRB1*1302): 26 nM
IC50 (DRB3*0101): > 20000 nM
IC50 (DR4w4 (DRB1*0401)): 4.1 nM
IC50 (DRB1*0301): > 20000 nM
IC50 (DRB1*0405): 25 nM
IC50 (DRB5*0101): 640 nM
IC50 (DRB4*0101): 2540 nM

TELNTSLQDIEITCV [Peptide 1543.34]
IC50 (DR7 (DRB1*0701)): > 20000 nM
IC50 (DR1 (DRB1*0101)): > 20000 nM
IC50 (DRB1*1201): > 20000 nM
IC50 (DRB1*1501): > 20000 nM
IC50 (DRB1*0901): > 20000 nM
IC50 (DRB1*0802): 5520 nM
IC50 (DRB1*1101): > 20000 nM
IC50 (DRB1*1302): 7070 nM
IC50 (DRB3*0101): > 20000 nM
IC50 (DR4w4 (DRB1*0401)): > 20000 nM
IC50 (DRB1*0301): > 20000 nM
IC50 (DRB1*0405): > 20000 nM
IC50 (DRB5*0101): > 20000 nM
IC50 (DRB4*0101): 922 nM

LTDQLIHMHY [Peptide 9018.0032]
IC50 (A*3002): 350 nM
IC50 (HLA-A1 (A*0101)): 6.6 nM

ITKIQNFRVY [Peptide 9015.0173]
IC50 (A*2902): 1800 nM
IC50 (HLA-A1 (A*0101)): 9470 nM

LYCYEQLSDSSDEDE [Peptide 1543.13]
IC50 (DR7 (DRB1*0701)): 9770 nM
IC50 (DR1 (DRB1*0101)): 5690 nM
IC50 (DRB1*1201): > 20000 nM
IC50 (DRB1*1501): > 20000 nM
IC50 (DRB1*0901): > 20000 nM
IC50 (DRB1*0802): > 20000 nM
IC50 (DRB1*1101): 3380 nM
IC50 (DRB1*1302): > 20000 nM
IC50 (DRB3*0101): > 20000 nM
IC50 (DR4w4 (DRB1*0401)): 1120 nM
IC50 (DRB1*0301): > 20000 nM
IC50 (DRB1*0405): 89 nM
IC50 (DRB5*0101): > 20000 nM
IC50 (DRB4*0101): 12700 nM

LADQLIHMHY [Peptide 9015.0186]
IC50 (A*3002): 817 nM
IC50 (A*2902): 3070 nM
IC50 (HLA-A1 (A*0101)): 8.1 nM

EDLRTLQQLFLSTLS [Peptide 1543.21]
IC50 (DR7 (DRB1*0701)): 390 nM
IC50 (DR1 (DRB1*0101)): 20 nM
IC50 (DRB1*1201): 958 nM
IC50 (DRB1*1501): 141 nM
IC50 (DRB1*0901): 15500 nM
IC50 (DRB1*0802): 12800 nM
IC50 (DRB1*1101): 279 nM
IC50 (DRB1*1302): 7.5 nM
IC50 (DRB3*0101): > 20000 nM
IC50 (DR4w4 (DRB1*0401)): 34 nM
IC50 (DRB1*0301): 6770 nM
IC50 (DRB1*0405): 582 nM
IC50 (DRB5*0101): > 20000 nM
IC50 (DRB4*0101): 17 nM

RVCLLFYSKVRKYRY [Peptide 1543.54]
IC50 (DR7 (DRB1*0701)): 232 nM
IC50 (DRB1*1201): 603 nM
IC50 (DRB1*1501): 717 nM
IC50 (DRB1*0901): 656 nM
IC50 (DRB1*1101): 4260 nM
IC50 (DRB1*1302): 89 nM
IC50 (DRB3*0101): 868 nM
IC50 (DR4w4 (DRB1*0401)): 299 nM
IC50 (DRB1*0301): 71 nM
IC50 (DRB1*0405): 233 nM
IC50 (DRB5*0101): 3850 nM
IC50 (DRB4*0101): 7740 nM

LYDQLIHMHY [Peptide 9018.0034]
IC50 (A*3002): 55 nM
IC50 (A*2902): 123 nM

CSMSYTWTGA [Peptide 1489.14]
IC50 (A*2902): > 20000 nM
IC50 (HLA-A1 (A*0101)): > 20000 nM

QRFHNIRGRWTGRCM [Peptide 1543.27]
IC50 (DR1 (DRB1*0101)): 36 nM
IC50 (DRB1*1201): 14600 nM
IC50 (DRB1*1501): 17200 nM
IC50 (DRB1*0901): > 20000 nM
IC50 (DRB1*0802): 894 nM
IC50 (DRB1*1101): 574 nM
IC50 (DRB1*1302): 5310 nM
IC50 (DRB3*0101): > 20000 nM
IC50 (DR4w4 (DRB1*0401)): 2900 nM
IC50 (DRB1*0301): > 20000 nM
IC50 (DRB1*0405): 4470 nM
IC50 (DRB5*0101): 919 nM
IC50 (DRB4*0101): 4550 nM

SSSKVSQNY [Peptide 9015.0011]
IC50 (A*3002): 32 nM
IC50 (A*2902): 1760 nM

GCWRQTSREPRESTV [Peptide 1543.46]
IC50 (DR7 (DRB1*0701)): 72 nM
IC50 (DR1 (DRB1*0101)): 2640 nM
IC50 (DRB1*1201): > 20000 nM
IC50 (DRB1*1501): > 20000 nM
IC50 (DRB1*0901): 3200 nM
IC50 (DRB1*0802): 356 nM
IC50 (DRB1*1101): 144 nM
IC50 (DRB1*1302): > 20000 nM
IC50 (DRB3*0101): > 20000 nM
IC50 (DR4w4 (DRB1*0401)): 1840 nM
IC50 (DRB1*0301): 902 nM
IC50 (DRB1*0405): 2300 nM
IC50 (DRB5*0101): 4270 nM
IC50 (DRB4*0101): > 20000 nM
